Source: patent US20240315994A1, “SMALL MOLECULE MODULATORS OF FERROPTOSIS” (ARPEGGIO BIOSCIENCES, INC., priority 2021, published 2024)

Columns and labels:
[1] = system: 786-O Renal Clear Cell Carcinoma cells; assay: Bodipy-C11 lipid peroxidation staining in 786-O cells; format: cell-based; details: for lipid peroxidation (Bodipy-C11 staining): 8216 6.25 μM 2 h, 1816 25 μM 1 h, 3362 12.5 μM 2 h, 0973 50 μM 2 h, 1962 50 μM 2 h
Protocol: To validate that the five ferroptosis-inducing compounds identified in FIG. 3 do cause lipid peroxidation, we used Bodipy-C11 staining in 786-O Renal Clear Cell Carcinoma cells to visualize using microscopy the presence (or absence) of oxidized lipids. Biodipy-C11 is a dye that traffics to lipid membranes and harbors a fluorophore that emits at different wavelengths depending on its oxidation status. Briefly, 786-O Renal Clear Cell Carcinoma cells were plated 24 hours prior to treatment with each of the five ferroptosis-inducing compounds (8216, 1816, 3362, 1962, and 0973) for one or two hours. DMSO was used as a control treatment. Following the treatment period, Hoechst stain (10 μM; a nuclear counterstain) and Bodipy-C11 (200 μM) were added to the cells for 30 minutes and then the cells were imaged using the Opera Phenix high content screening microscope.
FIG. 4B is a panel of plots 410 showing fluorescence images of Biodipy-C11 staining of cells treated with compound 8216 and the controls RSL3 and sodium arsenite. Briefly, 786-O Renal Clear Cell Carcinoma cells were plated 24 hours prior to treatment with compound 8216 and the controls RSL3 and sodium arsenite for 1 hour with and without 1.5 μM of ferrostatin-1. Bodipy C-11 undergoes a shift in emission when lipids become oxidized, non-oxidized lipids are represented in orange and oxidized lipids are green; Hoescht was included as nuclear stain to represent cell bodies.

[2] = biological target: T1, recombinant GPX4 protein (Homo sapiens, UniProt P36969); assay: Intact protein mass spectrometry binding to recombinant GPX4; details: for number of binding events / sites on GPX4 (mass shifts) / binding to recombinant GPX4 in vitro: intact protein mass spectrometry, 2 hours incubation
T1 construct: purchased Cayman Chemical SO960203
T1 sequence (P36969 1-197): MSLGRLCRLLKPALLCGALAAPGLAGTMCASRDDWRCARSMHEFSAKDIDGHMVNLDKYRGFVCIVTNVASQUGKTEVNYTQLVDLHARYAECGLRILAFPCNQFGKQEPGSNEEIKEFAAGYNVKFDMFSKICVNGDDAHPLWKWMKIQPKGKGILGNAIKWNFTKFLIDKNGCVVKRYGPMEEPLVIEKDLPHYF
Source text: To determine whether the five ferroptosis-inducing compounds identified in FIG. 3 and FIG. 4 could function through direct binding and inhibition of GPX4, we tested binding of each compound to recombinant GPX4 protein in vitro by intact protein mass spectrometry. Intact mass analysis is the assessment of a protein's total molecular weight by mass spectrometry without prior digestion or fragmentation of the molecule of interest. Covalent binding of a potential inhibitor to GPX4 can be detected by a shift in the mass of the intact protein. For the intact protein analysis, we used ML162, a well-characterized GPX4 inhibitor (available from Sigma Aldrich), as a positive control. […] Briefly, compounds were incubated with recombinant GPX4 protein in vitro for 2 hours before quenching with trifluoroacetic acid (TFA) and analysis by mass spectroscopy.
To determine whether the ferroptosis-inducing compounds 6666 and 8147 could function through direct binding and inhibition of GPX4, we tested binding of each compound to recombinant GPX4 protein in vitro by intact protein mass spectrometry. Compound 8216 was used as a positive control (see FIG. 6). Briefly, 15 μL of GPX4 protein (Cayman Chemical cat #SO960203]) was incubated with 100 µM of each compound ([…]) and diluted with 25.5 μl of PBS. The incubation was performed at room temperature for 2 hours and then the reaction was quenched with 3 μL of trifluoroacetic acid. Samples were subjected to UPLC coupled to Synapt G2 mass spectrometer to evaluate if binding of the test compound to GPX4 occurs. Binding is evident by a mass shift equivalent to the mass size of the compound minus a chlorine atom plus the mass size of the GPX4 protein, as described by the manufacturer.

[3] = system: HMOX1 expression in HT-1080 fibrosarcoma cells; assay: HMOX1 induction by RT-qPCR in HT-1080 cells; format: cell-based; details: for HMOX1 induction (RT-qPCR): 10 μM or 5 μM, four hours, normalized to ACTB, relative to DMSO
Protocol: We tested several of our ferroptosis-inducing compounds for their ability to rapidly induce HMOX1 by RT-qPCR. Briefly, HT-1080 fibrosarcoma cells were treated with either 10 µM or 5 µM of compound RSL3, 8216, 1962, 1816, or 3362 for four hours. RNA was isolated and reverse transcribed and HMOX1 expression quantified by qPCR. Each sample was normalized to an ACTB housekeeping gene control and fold change was calculated relative to a DMSO control.
We tested several of the ferroptosis-inducing compounds for their ability to rapidly induce expression of HMOX1. Briefly, HT-1080 fibrosarcoma cells were plated in 6-well dishes 24 hours prior to treatment with 5 μM of 8147, 6047, 3793, Rsl3, 6666 or 8216 with and without the addition of ferrostatin-1 to the media. Cells were harvested from the plate after 4 hours of compound treatment by adding Trizol reagent directly to the plate to lyse the cells and preserve the RNA. RNA was isolated using the Direct-zol 96-well RNA kit (Zymo cat #R2054). Subsequently purity and quantity of RNA in the samples were measured using a Nanodrop (Thermo Fisher cat #ND-ONE-W). RNA samples were normalized to 2 μg and reverse transcribed to cDNA using the Multiscribe High-Capacity Reverse Transcription kit (Thermo Fisher cat #4368814) following manufacturer's instructions. Quantitative real time PCR was carried out in triplicate using SYBR Select Master Mix (Thermo Fisher cat #4472903) following manufacturer's instructions with primers designed against HMOX1 and ActB from IDT. HMOX1 expression levels were normalized to ActB for each sample then fold change was determined against the vehicle control, DMSO.

[4] = biological target: T1, recombinant GPX4 protein; assay: GPX4 inhibitor screening assay (Cayman Chemical cat #701880); format: biochemical; details: for GPX4 inhibitory capacity in vitro: 25 μM, one hour incubation with recombinant GPX4; for EC50: stated with the FIG. 6/FIG. 7 binding and GPX4 enzymatic results, assay behind the EC50 not named, read-out: EC50 (half maximal effective concentration)
Protocol: To determine whether the five ferroptosis-inducing compounds (1816, 8216, 3362, 1962, and 0973) inhibit GPX4 enzymatic activity in vitro, we used a commercially available GPX4 inhibitor screening kit (Cayman Chemical cat #701880). This assay measures a compound's ability to prevent cumene hydroperoxide reduction by recombinant GPX4 protein. Briefly, the five ferroptosis-inducing compounds (25 μM) were incubated with recombinant GPX4 protein for one hour before being run in the Cayman Chemicals GPX4 inhibitor screening assay according to manufacturer's recommendations. The assay read out is a change in absorbance between NADPH and NADP. ML162 (25 μM) and RSL3 (25 μM) were used as positive control compounds.
An enzymatic assay that measures the reduction of […] by GPX4 was used to test the ability of compounds 8216, 6666, 8147, and 3793 to inhibit the activity of GPX4. The enzymatic assay was performed using a commercially available kit (Cayman cat #701880). The compounds were tested at 8 concentrations in duplicate with the compound being diluted following manufacturer's instructions. The enzymatic reaction was allowed to continue for 1 hour prior to reading out the kinetic shift in absorbance that occurs as result of GPX4 […].

CCOc1ccc(C[C@@H]2c3cc(OCC)c(OCC)cc3CCN2C(=O)CCl)cc1OCC [Compound 3362]
lipid peroxidation (Bodipy-C11 staining) [1]: some degree of lipid peroxidation was observed | number of binding events / sites on GPX4 (mass shifts) [2]: bind either 1, 2, or 3 times | HMOX1 induction (RT-qPCR) [3]: results in induction of HMOX1 | GPX4 inhibitory capacity in vitro [4]: do not inhibit GPX4 enzymatic activity in vitro

CCCCCN(C(=O)CCl)c1c(N)n(CCCC)c(=O)[nH]c1=O [Compound 1816]
lipid peroxidation (Bodipy-C11 staining) [1]: some degree of lipid peroxidation was observed | binding to recombinant GPX4 in vitro [2]: capable of binding GPX4 | number of binding events / sites on GPX4 (mass shifts) [2]: display a single mass shift | HMOX1 induction (RT-qPCR) [3]: did not induce HMOX1 | GPX4 inhibitory capacity in vitro [4]: do not inhibit GPX4 enzymatic activity in vitro

O=C(CCl)N1c2ccccc2OC[C@@H]1c1ccccc1 [Compound 1962]
lipid peroxidation (Bodipy-C11 staining) [1]: some degree of lipid peroxidation was observed | binding to recombinant GPX4 in vitro [2]: capable of binding GPX4 | number of binding events / sites on GPX4 (mass shifts) [2]: can bind GPX4 either 2, 3, or 4 times | HMOX1 induction (RT-qPCR) [3]: did not lead to dose responsive induction of HMOX1 | GPX4 inhibitory capacity in vitro [4]: exhibit potent GPX4 inhibitory capacity | EC50 [4]: ~440 nM

O=C(CCl)N(Cc1ccc(F)cc1)C1CCCCC1 [Compound 8216]
Bodipy C-11 emission shift (lipid oxidation) ([1]; 1 hour, with and without 1.5 μM ferrostatin-1): shift in emission color from orange to green | lipid peroxidation (Bodipy-C11 staining) [1]: some degree of lipid peroxidation was observed | mass shift of GPX4 (binding) ([2]; 100 μM compound, room temperature, 2 hours, UPLC-Synapt G2): demonstrate a mass shift | binding to recombinant GPX4 in vitro [2]: capable of binding GPX4 | number of binding events / sites on GPX4 (mass shifts) [2]: bind either 1, 2, or 3 times | HMOX1 upregulation and rescue by ferrostatin-1 (RT-qPCR) ([3]; 5 μM, 4 hours, with and without ferrostatin-1): upregulation of HMOX1 which was rescued by the addition of ferrostatin-1, to varying degrees | HMOX1 induction (RT-qPCR) [3]: remarkably similar dose-dependent HMOX1 induction | GPX4 inhibitory capacity in vitro [4]: exhibit potent GPX4 inhibitory capacity | EC50 [4]: ~100 nM
